This is an account of results in ChEMBL document CHEMBL2311284, “A novel series of N-(azetidin-3-yl)-2-(heteroarylamino)acetamide CCR2 antagonists” (Bioorg Med Chem Lett, 2013).

A short description of data set [1]: Oral bioavailability in rat at 10 mg/kg. In kind it is ADME, organism-based. Particulars: in vivo.
Data set [2] in a line: AUClast in rat at 2 mg/kg, iv and 10 mg/kg, po. As to conditions: plasma.
A short description of data set [3]: Clearance in rat at 2 mg/kg, iv and 10 mg/kg, po. As to conditions: in vivo.
A short description of data set [4]: Volume of distribution at steady state in rat at 2 mg/kg, iv and 10 mg/kg, po. Particulars: in vivo, read-out: Vdss.

`O=C(CNc1ncnc2ccc(C(F)(F)F)cc12)NC1CN([C@H]2CC[C@@](O)(c3cncs3)CC2)C1`: in data set [1], the bioavailability turned out to be 0.3%. Besides, the AUC(0-t) in data set [2] came out at 10.6 ng·h/mL. For the same compound, in data set [3], the clearance is 89 mL/min/kg. Moreover, the Vd in data set [4] is 8.5 L/kg.

For the compound `N#Cc1cc(NCC(=O)NC2CN([C@H]3CC[C@@](O)(c4cncs4)CC3)C2)c2cc(C(F)(F)F)ccc2n1`, the bioavailability in data set [1] is 0.5%. Moreover, the AUC(0-t) in data set [2] turned out to be 6 ng·h/mL. Moreover, the clearance in data set [3] worked out at 148 mL/min/kg. Also, the Vd in data set [4] is 13 L/kg.

As a reminder, the bioavailability is the share of a dose that reaches the circulation, judged against a reference dose that is usually intravenous. Low values mean little systemic uptake, high ones much systemic uptake. For orientation: AUC(0-t) means exposure summed from dosing to a finite time, without extrapolation to infinity.
